Earlier results in patent publication US20220054402A1, “COMPOSITIONS AND METHODS FOR EXTRACTING, STABILIZING, AND MAN[…] DOSAGE FORMS OF PSILOCIN, P[…], ENTHEOGENS, AND MEDICINAL MUSHROOMS AS NANO-D[…] DELIVERY STRUCTURES” (priority 2020, published 2022).

Tests used:
[1] = oral ingestion
[2] = target: serotonin 5-HT2A receptor (Homo sapiens, UniProt P28223); details: psilocin versus psilocybin
[3] = β-glucan embedded in chitin cell walls

serotonin 5-HT2A receptor, sequence (P28223 whole entry): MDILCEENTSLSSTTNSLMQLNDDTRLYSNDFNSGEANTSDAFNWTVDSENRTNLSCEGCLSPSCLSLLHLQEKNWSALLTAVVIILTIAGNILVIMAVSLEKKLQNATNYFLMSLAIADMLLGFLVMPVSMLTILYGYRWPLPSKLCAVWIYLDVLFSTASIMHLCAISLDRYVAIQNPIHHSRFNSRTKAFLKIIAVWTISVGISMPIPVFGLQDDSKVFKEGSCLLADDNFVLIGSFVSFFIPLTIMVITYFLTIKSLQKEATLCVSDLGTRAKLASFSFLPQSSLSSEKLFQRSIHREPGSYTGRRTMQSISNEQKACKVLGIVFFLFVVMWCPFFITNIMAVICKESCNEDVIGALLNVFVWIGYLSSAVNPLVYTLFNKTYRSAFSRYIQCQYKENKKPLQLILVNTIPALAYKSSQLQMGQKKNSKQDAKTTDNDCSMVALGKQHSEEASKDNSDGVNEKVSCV

## COc1cc(CCN)cc(OC)c1OC [Mescaline, 5-trimethoxyphenethylamine]
[1]
  reported onset time of effects from ingesting: 60 to 180 min

## CN(C)CCc1c[nH]c2cccc(O)c12 [Psilocin, 4-hydroxy-NN-dimethyltryptamine]
[2]
  affinity for binding the serotonin 5-HT2A receptor relative to psilocybin: more than 200 times

## β-glucan
[3]
  bioavailability: less than 5%
